Measured values from patent publication US20230346773A1, “USE OF PCSK9 INHIBITOR IN PREPARATION OF PRODUCT FOR TREATING MULTIPLE DISEASES” (priority 2020, published 2023).
Marks after values point to notes of the source that are not given here.

How the values were obtained:
[1] = system: androgenetic alopecia (SA) rat model; experiment: Androgenetic alopecia (SA) rat model induced by testosterone propionate; type: in vivo, Wistar rats
Procedure: SPF grade Wistar rats were selected and randomly divided into compound group 1 (skin applied with 5% R-IMPP solution), compound group 2 (skin applied with 5% PF 06446846 solution), and compound group 3 (skin applied with 5% SBC-115076 solution), compound group 4 (skin applied with 5% SBC-110736 solution), monoclonal antibody group 1 (subcutaneous injection of PCSK9 monoclonal antibody ab84041, 5 mg/kg·d), monoclonal antibody group 2 (subcutaneous injection of Evolocumab, 5 mg/kg·d), monoclonal antibody group 3 (subcutaneous injection of Alirocumab, 5 mg/kg·d), PCSK9 RNAi inhibitor group-1 (skin applied with 5% PCSK9 small interfering RNA-1 solution), PCSK9 RNAi inhibitor group-2 (skin applied with 5% PCSK9 small interfering RNA-2 solution), PCSK9 RNAi inhibitor group-3 (skin applied with 5% PCSK9 small interfering RNA-3 solution), and polypeptide group (subcutaneous injection of Abcam company ab32727, 3 mg/kg·d), positive control group (skin smeared with 5% minoxidil tincture), negative control group (smeared with 75% ethanol), model control group (smeared with 75% ethanol), 10 rats in each group, half male and half female.
Before the experiment, each rat selected an area of 4 cm×5 cm on the back to remove the hair as the observation area. Except for the negative control group, the rats were subcutaneously injected with testosterone propionate injection [[…]] at the back of the neck, once a day for 60 consecutive days to establish the SA model. […] At the same time, the rats in the corresponding drug group were smeared or subcutaneously injected on the skin of the observation area of the rats in the drug group, smeared 1 ml/(per time), twice a day, with an interval of 8 hours, and administered by subcutaneous injection, once a day. The negative control group and the model control group were smeared with excipient (75% ethanol solution), 1 mL one rat per time, twice a day, for 60 consecutive days.
10 hairs were extracted from the observation area on the back of each rat every 15 days after administration, and the hair length was measured with a vernier caliper. After 60 days of administration, the skin of the experimental observation area was taken for routine tissue dehydration, paraffin embedding, HE staining, and light microscopy to observe the histopathological changes of the rat skin hair follicles and sebaceous glands. Semi-quantitative analysis was carried out in each group. The grading standards are as follows: normal skin dermal tissue cells, subcutaneous hair follicles, and sebaceous glands were marked as “one”; no hyperplasia in the dermis, limited lesions of hair follicles and sebaceous glands, and no subcutaneous inflammation, marked as “±”; no obvious hyperplasia found in the dermis, obviously cystic follicles, no obvious hyperplasia found in the sebaceous glands, and no inflammation is recorded as “+”; segmental hyperplasia of skin and dermis was not obvious, a small number of hair follicles had cystic degeneration, and sebaceous glands had mild hyperplasia and hypertrophy. No obvious inflammation under the skin was recorded as “++”; the skin and dermis tissue cells had segmental hyperplasia of different degrees, some follicles degenerated, the size of the hair follicles was uneven, and there were no cells in the periphery. There was hyperplasia of sebaceous glands, and there were few nuclei in the hyperplasia glands. Individual rats had mild inflammatory hyperplasia under the skin, which was marked as “+++”.

[2] = system: hair follicles / hair growth in depilated C57BL/6 mice; experiment: Hair growth in C57BL/6 mice after rosin/paraffin depilation; type: in vivo
Procedure: SPF grade C57BL/6 mice were selected and numbered according to their weight. They were randomly divided into compound group 1 (skin applied with 2% R-IMPP solution), compound group 2 (skin applied with 2% PF 06446846 solution), and compound group 3 (skin applied with 2% SBC-115076 solution), compound group 4 (skin applied with 2% SBC-110736 solution), monoclonal antibody group 1 (PCSK9subcutaneous injection monoclonal antibody ab81041, 5 mg/kg·d), monoclonal antibody group 2 (Subcutaneous injection of Evolocumab, 5 mg/kg·d), monoclonal antibody group 3 (subcutaneous injection of Alirocumab, 5 mg/kg·d), PCSK9 RNA interference group-1 (skin applied with 2% PCSK9 small interfering RNA-1 solution), PCSK9 RNA interference Group-2 (skin applied with 2% PCSK9 small interfering RNA-2 solution), PCSK9 RNA interference group-3 (skin applied with 2% PCSK9 small interfering RNA-3 solution), polypeptide group (subcutaneous injection of Abcam company ab32727, 3 mg/kg·d), positive control group (skin applied with 2% minoxidil solution), negative control group (skin applied with 60% ethanol), and model control group (skin applied with 60% ethanol), 10 mice in each group, half male and half female. After the mice were anesthetized with ether, they were coated on the back with a mixture of rosin and paraffin (1:1) after hot melting, and then peeled off after it solidified and hardened. The back of the mouse was cleaned to be hairless and without injuries. The depilation area was about 3 cm×4 cm. From the 2nd day after depilation, the corresponding drugs were applied to the hair removal area, twice a day, 0.5 mL per animal each time, and subcutaneously injected once a week.
From the second day after application, observe the daily color change of the skin on the back of the mice to determine the growth state of the hair follicles and visually observe the hair growth in the depilation area, and score the new hair growth in the depilation area once a day. Five mice in each group were reserved for 40 days of visual observation, and the growth of back hair was recorded.
On the 17th day, five mice in each group were sacrificed by cervical dislocation. The samples were taken from the same part of the back parallel to the spine, fixed with 10% formaldehyde, dehydrated, embedded in paraffin, sectioned, stained with HE, and sealed with neutral gum. Then the histology of hair follicles was observed under light microscope, and morphological staging of hair follicles was performed. According to the international hair cycle scoring method, the hair follicles were scored as follows: 100 points for growth stage VI, 200 points for early regression, 300 points for middle regression, and 400 points for late regression. 50 hair follicles were randomly selected from each mouse, the cycle of the hair follicles in each group was determined, and the average hair cycle score and the percentage of hair follicles in the growth phase VI, early regression, middle regression, and late regression were calculated.

[3] = hair removal area on the back of mice, after hair removal

Nc1cc(N2CCCCC2)nc(N)[n+]1[O-] [Positive control group, minoxidil]
Skin hair follicles and sebaceous glands: number of rats graded ++ ([1]; 10 rats, after 60 days, few follicles with cystic degeneration, sebaceous glands mild hyperplasia and hypertrophy): 2
Skin hair follicles and sebaceous glands: number of rats graded ± ([1]; 10 rats, after 60 days, no hyperplasia in the dermis, limited lesions of hair follicles and sebaceous glands, no subcutaneous inflammation): 3
Skin hair follicles and sebaceous glands: number of rats graded + ([1]; 10 rats, after 60 days, no obvious hyperplasia in dermis, obviously cystic follicles, no inflammation): 5
Skin hair follicles and sebaceous glands: number of rats graded − ([1]; 10 rats, after 60 days, normal skin dermal tissue cells, subcutaneous hair follicles and sebaceous glands): 0
Skin hair follicles and sebaceous glands: number of rats graded +++ ([1]; 10 rats, after 60 days, segmental hyperplasia, degenerated follicles, hyperplasia of sebaceous glands, mild inflammatory hyperplasia): 0
15 d hair length ([1]; rats, 15 days after administration): 7.9* mm
30 d hair length ([1]; rats, 30 days after administration): 8.4* mm
45 d hair length ([1]; rats, 45 days after administration): 12.8* mm
60 d hair length ([1]; rats, 60 days after administration): 14.9* mm
percentage of hair follicles in the growth stage VI ([2]; 17th day after hair plucking): 42%
average hair cycle score ([2]; 17th day after hair plucking, 100 points growth stage VI, 200 early, 300 middle, 400 late regression): 185
Time from hair growth to the same length as the hair in the non-experimental area ([2]; back hair removal area of mice): 15.77 days
Time to grow new hair ([2]; back hair removal area of mice): 7.85 days
Time to match the length of hair in the non-experimental area ([2]; back hair removal area of mice): 23.62 days
Black skin duration ([2]; hair removal area on the back of mice): 12.80 days
Skin black-turning time [2, 3]: 6.29* days
Skin grayish-black-turning time [2, 3]: 19.09* days
